According to US7973034B2, “Amide, aryl sulfonamide, aryl urea, and α,β-diketone derived carboxylesterase inhibitors, and their methods of use” (priority 2003, dated 2011):
Read-outs that look alike come from different tables or passages of the source.

Assays:
[1] = human plasma in vitro; cited from earlier work
[2] = rat plasma, within 1 hour of incubation; cited from earlier work
[3] = mouse plasma, within 1 hour of incubation; cited from earlier work
carboxylesterases = test: General carboxylesterase inhibition; assay type: biochemical
Procedure: Carboxylesterase (CE) inhibition was determined by a spectroscopic assay using o-nitrophenyl acetate (o-NPA) as a substrate. Recombinant CEs produced from expression in Spodoptera frugiperda Sf9 insect cells via baculovirus were purified from serum-free culture media for the enzyme inhibition studies. Enzymes were incubated in 200 μl of 50 mM Hepes (pH 7.4) containing 3 mM o-NPA. Conversion of the o-NPA to nitrophenol was monitored by measuring the change in the absorbance at 420 nm. Absorbance readings were taken every 15 seconds for 2 minutes, and data transferred to a computer data spreadsheet. […] The final DMSO concentration was always 1% or less. […] The above procedure was then repeated using the same assay, with inhibitor concentrations ranging from 1 nM to 100 μM. Results were then transferred to Prism software (GraphPad Software, Inc., San Diego, Calif.) and Ki values determined using sigmoidal curve fits of the data. Routinely, all analyses were performed in duplicate, and Ki values determined using at least 8 inhibitor concentrations.

[4] = tested on: chicken liver carboxylesterase; settings: cited from earlier work
[5] = molecular target: T1, human small intestine carboxylesterase (hiCE) (Homo sapiens, UniProt O00748); test: biochemical; assay type: biochemical; settings: o-NPA as substrate; for Ki: Table 5, read-out: Ki hiCE; for Ki (hCE1)/Ki (hiCE): selectivity ratio
T1 sequence (O00748 27-559): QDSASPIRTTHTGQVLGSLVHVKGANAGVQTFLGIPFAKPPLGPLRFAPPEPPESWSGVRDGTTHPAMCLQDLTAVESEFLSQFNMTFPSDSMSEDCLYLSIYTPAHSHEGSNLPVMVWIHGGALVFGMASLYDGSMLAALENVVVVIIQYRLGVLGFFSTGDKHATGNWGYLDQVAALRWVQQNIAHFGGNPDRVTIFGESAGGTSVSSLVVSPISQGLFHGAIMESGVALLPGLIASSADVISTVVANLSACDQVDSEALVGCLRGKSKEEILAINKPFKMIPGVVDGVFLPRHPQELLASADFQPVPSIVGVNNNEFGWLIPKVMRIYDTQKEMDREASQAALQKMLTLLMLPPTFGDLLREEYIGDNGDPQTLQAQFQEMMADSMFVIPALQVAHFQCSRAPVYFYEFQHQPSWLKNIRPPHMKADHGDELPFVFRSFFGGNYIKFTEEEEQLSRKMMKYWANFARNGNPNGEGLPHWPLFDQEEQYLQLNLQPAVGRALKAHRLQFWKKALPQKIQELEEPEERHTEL

[6] = molecular target: T2, human liver carboxylesterase (hCE1) (Homo sapiens, UniProt P23141); test: biochemical; assay type: biochemical; settings: o-NPA as substrate; Table 5; read-out: Ki hCE1
T2 sequence (P23141 18-567): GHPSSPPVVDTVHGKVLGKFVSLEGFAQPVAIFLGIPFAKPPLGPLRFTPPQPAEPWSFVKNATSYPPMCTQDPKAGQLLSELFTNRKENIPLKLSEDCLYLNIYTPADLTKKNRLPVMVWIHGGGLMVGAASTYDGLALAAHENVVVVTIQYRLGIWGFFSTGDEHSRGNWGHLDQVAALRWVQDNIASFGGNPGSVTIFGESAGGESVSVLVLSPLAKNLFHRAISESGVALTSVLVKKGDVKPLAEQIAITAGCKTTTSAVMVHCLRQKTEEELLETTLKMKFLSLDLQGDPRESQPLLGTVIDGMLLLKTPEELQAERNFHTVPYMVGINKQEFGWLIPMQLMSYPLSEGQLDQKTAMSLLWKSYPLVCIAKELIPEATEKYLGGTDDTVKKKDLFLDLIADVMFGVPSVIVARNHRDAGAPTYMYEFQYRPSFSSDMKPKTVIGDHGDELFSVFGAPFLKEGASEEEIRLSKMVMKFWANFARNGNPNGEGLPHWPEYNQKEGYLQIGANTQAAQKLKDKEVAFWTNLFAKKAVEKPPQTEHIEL

[7] = molecular target: T3, rabbit liver carboxylesterase (rCE) (Oryctolagus cuniculus, UniProt P12337); test: biochemical; assay type: biochemical; settings: o-NPA as substrate; Table 5; read-out: Ki rCE
T3 sequence (P12337 19-565): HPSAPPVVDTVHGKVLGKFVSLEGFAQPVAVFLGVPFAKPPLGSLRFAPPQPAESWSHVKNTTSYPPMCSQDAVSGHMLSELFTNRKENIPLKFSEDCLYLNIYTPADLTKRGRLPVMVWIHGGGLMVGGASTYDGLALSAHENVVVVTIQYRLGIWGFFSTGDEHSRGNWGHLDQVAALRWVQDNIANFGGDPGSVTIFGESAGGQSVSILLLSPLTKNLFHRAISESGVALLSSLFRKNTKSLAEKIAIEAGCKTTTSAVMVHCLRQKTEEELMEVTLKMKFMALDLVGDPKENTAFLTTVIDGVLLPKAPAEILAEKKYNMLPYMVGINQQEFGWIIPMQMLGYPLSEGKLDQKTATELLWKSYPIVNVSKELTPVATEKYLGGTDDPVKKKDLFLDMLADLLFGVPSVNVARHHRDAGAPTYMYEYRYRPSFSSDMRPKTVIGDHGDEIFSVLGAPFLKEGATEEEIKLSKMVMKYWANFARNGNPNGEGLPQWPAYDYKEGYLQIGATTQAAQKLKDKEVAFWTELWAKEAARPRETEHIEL

[8] = molecular target: T4, human acetylcholinesterase (hAcChE) (Homo sapiens, UniProt P22303); test: biochemical; assay type: biochemical; settings: acetylthiocholine substrate; Table 5; read-out: Ki hAcChE
T4 construct: purchased Sigma Biochemicals (St. Louis, Mo.)
Procedure: Data was transferred to GraphPad Prism software, and Ki values were calculated as described in the Example above.

[9] = molecular target: human butyrylcholinesterase (hBuChE) (Homo sapiens, UniProt P06276); test: biochemical
hiCE = molecular target: T5, hiCE (Homo sapiens, UniProt O00748); test: Inhibition of hiCE-mediated activation of CPT-11 (SN-38 by HPLC); assay type: biochemical
T5 sequence (O00748 27-559): T1 sequence (O00748 27-559)
Procedure: Since the sulphonamide compounds identified herein are competitive inhibitors of hiCE, their activity is dependant upon the substrate used. To access the ability of these compounds to inhibit the hiCE-mediated activation of CPT-11, Ki values were determined using CPT-11 as the substrate.
CPT-11 concentrations were fixed at […], and inhibitor concentrations varied from 1 nM to 10 μM. Following incubation for an hour at 37° C., the levels of SN-38 in the reaction mixture was determined by High Performance Liquid Chromatography (HPLC).

[10] = molecular target: T6, human intestinal carboxylesterase in U373MGhiCE cells (Homo sapiens, UniProt O00748); test: Inhibition of intracellular carboxylesterase in U373MGhiCE cells; assay type: cell-based
T6 construct: expressed in transfected cells; host or cells: U373MG human glioma cells (U373MGhiCE)
T6 sequence (O00748 27-559): T1 sequence (O00748 27-559)
Procedure: To monitor the ability of the compounds to cross the cell membrane and inhibit carboxylesterase activity intracellularly, an assay using human tumor cells expressing hiCE was devised. U373MGhiCE (a human glioma cell line transfected with a plasmid expressing hiCE) were plated in T25 flasks and allowed to grow to confluency (approximately 2-5×10^5 cells). Inhibitors were then added at a final concentration of […], and incubation allowed to continue for 1 hour. At this time, the cells were washed extensively with 5 ml of complete media and 2×5 ml of Hanks balanced salt solution, and cell extracts were prepared. Carboxylesterase activity was then determined using o-NPA as a substrate.
Table 8 sets forth the level of intracellular enzyme inhibition following incubation of human glioblastoma tumor cells expressing human intestinal carboxylesterase with 10 μM of each compound identified in Table 3.

[11] = CPT-11 as substrate (100 μm), 1 hour at 37° C., read-out: Ki hiCE

Sequence of human butyrylcholinesterase (hBuChE) (P06276 29-602): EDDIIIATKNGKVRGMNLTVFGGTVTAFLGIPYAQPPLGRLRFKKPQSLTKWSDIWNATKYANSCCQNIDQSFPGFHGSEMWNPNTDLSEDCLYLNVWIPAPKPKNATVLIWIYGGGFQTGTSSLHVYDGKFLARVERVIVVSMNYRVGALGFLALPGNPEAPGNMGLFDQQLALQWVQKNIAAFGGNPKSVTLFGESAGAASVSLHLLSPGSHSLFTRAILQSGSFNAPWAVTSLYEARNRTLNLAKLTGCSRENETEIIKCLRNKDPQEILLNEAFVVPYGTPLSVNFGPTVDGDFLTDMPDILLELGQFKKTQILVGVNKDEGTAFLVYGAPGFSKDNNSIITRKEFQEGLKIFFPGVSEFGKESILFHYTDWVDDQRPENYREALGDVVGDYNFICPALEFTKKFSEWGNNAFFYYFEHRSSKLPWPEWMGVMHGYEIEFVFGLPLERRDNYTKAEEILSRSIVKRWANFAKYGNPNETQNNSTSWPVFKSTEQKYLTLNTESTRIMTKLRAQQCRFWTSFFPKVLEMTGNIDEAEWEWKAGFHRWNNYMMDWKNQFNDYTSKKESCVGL
T4 sequence (P22303 32-614): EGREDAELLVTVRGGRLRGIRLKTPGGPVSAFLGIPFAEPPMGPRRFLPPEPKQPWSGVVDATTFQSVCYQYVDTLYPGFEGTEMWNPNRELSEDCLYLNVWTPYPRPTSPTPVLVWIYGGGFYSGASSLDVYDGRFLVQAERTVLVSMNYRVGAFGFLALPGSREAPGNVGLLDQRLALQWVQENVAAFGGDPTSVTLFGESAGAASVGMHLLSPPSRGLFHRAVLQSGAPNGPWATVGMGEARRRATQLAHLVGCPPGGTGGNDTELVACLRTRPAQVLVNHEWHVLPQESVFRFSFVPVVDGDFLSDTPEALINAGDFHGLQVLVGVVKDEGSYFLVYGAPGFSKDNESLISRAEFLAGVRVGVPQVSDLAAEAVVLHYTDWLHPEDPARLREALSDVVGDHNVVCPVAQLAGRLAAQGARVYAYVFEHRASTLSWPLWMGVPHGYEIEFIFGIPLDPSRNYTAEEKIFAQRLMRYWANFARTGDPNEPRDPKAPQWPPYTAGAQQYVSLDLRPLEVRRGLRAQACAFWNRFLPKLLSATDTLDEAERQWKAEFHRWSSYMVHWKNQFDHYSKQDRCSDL

Row | Compound | level of activation of CPT-11 by plasma [1] | drug converted to SN-38 [2] | drug converted to SN-38 [3] | found to be general carboxylesterase inhibitors (carboxylesterases) | inhibition of chicken liver carboxylesterase [4] | Ki [5] | Ki (hCE1)/Ki (hiCE) [5] | Ki [6] | Ki [7] | Ki [8] | Ki [9] | Ki (hiCE; [11]) | inhibition at 10 µM [10] | Ki (hiCE)
1 | CCc1c2c(nc3ccc(OC(=O)N4CCC(N5CCCCC5)CC4)cc13)-c1cc3c(c(=O)n1C2)COC(=O)[C@]3(O)CC [CPT-11, 7-ethyl-10-[4-(1-piperidino)-1-piperidino]carbonyloxycamptothecin] | very low | greater than 50% | greater than 50% | – | – | – | – | – | – | – | – | – | – | –
2 | O=C(C(=O)c1ccccc1)c1ccccc1 [Compound 2, Diphenylethane-1,2-dione] | – | – | – | general carboxylesterase inhibitors | inhibition | – | – | – | – | – | – | – | – | –
3 | O=S(=O)(Nc1ccc(NS(=O)(=O)c2ccc(Cl)cc2)c2ccccc12)c1ccc(Cl)cc1 [Compound 47, 4-chloro-N-(4-{[(4-chlorophenyl)sulfonyl]amino}-1-naphthyl)benzenesulfonamide] | – | – | – | – | – | 0.194 ± 0.023 µM | >500 | > 100 µM | > 100 µM | > 100 µM | > 100 µM | > 100 µM | 9.2% | –
4 | Cc1cc(C)c(S(=O)(=O)Nc2ccccc2)cc1S(=O)(=O)Nc1ccccc1 [Compound 48, 4,6-dimethyl-N,N′-diphenylbenzene-1,3-disulfonamide] | – | – | – | – | – | 0.218 ± 0.045 µM | >450 | > 100 µM | > 100 µM | > 100 µM | > 100 µM | > 100 µM | 8.9% | –
5 | Cc1cc(NS(=O)(=O)c2ccccc2)ccc1NS(=O)(=O)c1ccccc1 [Compound 49, N-{2-methyl-4-[(phenylsulfonyl)amino]phenyl}benzene sulfonamide] | – | – | – | – | – | 0.365 ± 0.087 µM | >250 | > 100 µM | 3.23 µM | > 100 µM | > 100 µM | – | 7.6% | 0.238 ± 0.029 µM
6 | CS(=O)(=O)Nc1ccc(SSc2ccc(NS(C)(=O)=O)cc2)cc1 [Compound 50, N-[4-({4-[(methylsulfonyl)amino]phenyl}dithio)phenyl]methanesulfonamide] | – | – | – | – | – | 0.767 ± 0.285 µM | >125 | > 100 µM | 0.739 ± 0.384 µM | > 100 µM | > 100 µM | > 100 µM | 14.6% | –
7 | O=S(=O)(Nc1ccc(NS(=O)(=O)c2ccccc2)cc1)c1ccccc1 [Compound 51, N-{4-[(phenylsulfonyl)amino]phenyl}benzene sulfonamide] | – | – | – | – | – | 1.06 µM | >90 | > 100 µM | 1.55 µM | > 100 µM | > 100 µM | 0.892 ± 0.067 µM | 5.5% | –
8 | CCOc1ccc(NS(=O)(=O)c2ccc(Cl)cc2)cc1 [Compound 52, 4-chloro-N-(4-ethoxyphenyl)benzenesulfonamide] | – | – | – | – | – | 1.31 µM | >75 | > 100 µM | 2 µM | > 100 µM | > 100 µM | – | 9.6% | 3.22 µM
9 | O=S(=O)(Nc1c(F)c(F)c(NS(=O)(=O)c2ccc(Cl)cc2)c(F)c1F)c1ccc(Cl)cc1 [Compound 59] | – | – | – | – | – | 0.0415 ± 0.0065 µM | >2,400 | > 100 µM | 0.522 ± 0.144 µM | > 100 µM | > 100 µM | – | 8.3% | 0.11 ± 0.023 µM
